We go through 4 molecules from paper PMC9963398, “Discovery of New Quinolone-Based Diarylamides as Potent B-RAF^V600E/C-RAF Kinase Inhibitors Endowed with Promising In Vitro Anticancer Activity” (International Journal of Molecular Sciences, 2023).

Where two headings read alike, the source gives them in different places.

The target in test [1] is T1, B-RAF^V600E (Homo sapiens, UniProt P15056, V600E).
T1 construct: purchased Reaction Biology Corporation (RBC), Kinase HotSpot service
In words: HotSpot kinase assay (RBC), B-RAF^V600E. Format: biochemical.

Test [2] concerns 786-0. In words: NCI-60 five-dose SRB assay. Format: cell-based. The settings on record: Homo sapiens; 786-0, Renal cancer, five-dose test. The gist of the method: (§1)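 Compounds went through the NCI's full 60-cell-line human tumour panel. Growth was measured by sulforhodamine B staining according to the institute's routine procedure.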
For orientation: Sulforhodamine B stains cellular protein and so reports cell mass.

The subject of test [3] is CAKI-1. The experiment in a line: NCI-60 five-dose SRB assay. Format: cell-based. The note with it: Homo sapiens; CAKI-1, Renal cancer, five-dose test. The gist of the method: as §1
Test [4] has as its system CCRF-CEM. The experiment in a line: NCI-60 five-dose SRB assay. Format: cell-based. The note with it: Homo sapiens, Leukemia, five-dose test. Put shortly: as §1
Test [5] concerns HL-60(TB). The experiment in a line: NCI-60 five-dose SRB assay. Format: cell-based. The note with it: Homo sapiens, Leukemia, five-dose test. The gist of the method:
as §1

In test [6] the test system is HOP-62. In words: NCI-60 five-dose SRB assay. Format: cell-based. The settings on record: Homo sapiens; HOP-62, NSCL cancer, five-dose test. The gist of the method: as §1
The test system of test [7] is HOP-92. The experiment in a line: NCI-60 five-dose SRB assay. Format: cell-based. The note with it: Homo sapiens; HOP-92, NSCL cancer, five-dose test. Put shortly: as §1
The subject of test [8] is HS 578T. The experiment in a line: NCI-60 five-dose SRB assay. Format: cell-based. The note with it: Homo sapiens, Breast cancer, five-dose test. The gist of the method: as §1
Test [9] concerns KM12. In words: NCI-60 five-dose SRB assay. Format: cell-based. The note with it: Homo sapiens; KM12, Colon cancer, five-dose test. The gist of the method: as §1
For test [10], the system named is M14. The experiment in a line: NCI-60 five-dose SRB assay. The settings on record: Homo sapiens; M14, Melanoma, five-dose test. Format: cell-based. Put shortly:
as §1

In test [11] the test system is MOLT-4. The experiment in a line: NCI-60 five-dose SRB assay. The settings on record: Homo sapiens; MOLT-4, Leukemia, five-dose test. Format: cell-based. The gist of the method:
as §1

Test [12] relates to NCI-H226. In words: NCI-60 five-dose SRB assay. Format: cell-based. The settings on record: Homo sapiens; NCI-H226, NSCL cancer, five-dose test. Put shortly:
as §1

The test system of test [13] is NCI/ADR-RES. The experiment in a line: NCI-60 five-dose SRB assay. Format: cell-based. The settings on record: Homo sapiens, Ovarian cancer, five-dose test. Put shortly:
as §1

The test system of test [14] is SR. The experiment in a line: NCI-60 five-dose SRB assay. The note with it: Homo sapiens, Leukemia, five-dose test. Format: cell-based. The gist of the method: as §1
Test [15] concerns SW-620. The experiment in a line: NCI-60 five-dose SRB assay. Format: cell-based. The note with it: Homo sapiens; SW-620, Colon cancer, five-dose test. The gist of the method: as §1
The test system of test [16] is UO-31. In words: NCI-60 five-dose SRB assay. Format: cell-based. The settings on record: Homo sapiens; UO-31, Renal cancer, five-dose test. The gist of the method: as §1
The test system of test [17] is MDA-MB-231/ATCC. In words: cells. The note with it: Homo sapiens. The method, then: (§2) The anticancer screening of target compounds over a full panel of 60 human cancer cell lines was carried out using Sulforhodamine B (SRB) assay at the National Cancer Institute (NCI), Bethesda, Maryland, USA, employing the standard protocol.
The test system of test [18] is MDA-MB-468. The experiment in a line: cells. The note with it: Homo sapiens. The method, then:
as §2

The subject of test [19] is PC-3. The experiment in a line: cells. The settings on record: Homo sapiens. The method, then: as §2
Test [20] concerns NCI-60 human cancer cell lines. The experiment in a line: NCI-60 single dose (10 µM) testing. Format: cell-based. The settings on record: single dose 10 µM. How it is done: Encouraged by the promising results in the cell-free assay, the antiproliferative activity of all final compounds was evaluated by the National Cancer Institute (NCI) in a single dose of 10 µM over a library of 60 human cancer cell lines representing nine cancer types; leukemia, non-small cell lung (NSCL), colon, central nervous system (CNS), melanoma, ovarian, renal, prostate, and breast cancer.

Test [21] deals with NCI-60 human tumor cell lines. In words: NCI-60 five-dose testing, ranges over panel or subpanel. Format: cell-based. The method, then: as §2
The target of test [22] is C-RAF (Homo sapiens, UniProt P04049). In words: HotSpot kinase assay (RBC), C-RAF. The note with it: IC50 C-RAF.
Description: Reaction Biology Corporation (RBC) Kinase HotSpotSM service was utilized for cell-free biochemical kinase evaluation of the target compounds according to the reported assay protocol [46].
Test [23] addresses T2, B-RAF^V600K (Homo sapiens, UniProt P15056, V600K).
T2 construct: purchased Reaction Biology Corporation (RBC), Kinase HotSpot service
In words: HotSpot kinase assay (RBC), B-RAF^V600K. The note with it: 10 µM ATP. Format: biochemical. How it is done:
To gain insight into the inhibitory mode of this new array of quinolines, 18a was tested at 1 µM concentration of ATP to compare it with its IC50 at 10 µM (Table 2).

Test [24] concerns HL-60(TB). Also on record: method as in PMID 32745753. The note with it: Leukemia; cited from earlier work.
In test [25] the test system is RPMI-8226. Set-up: method as in PMID 32745753. The settings on record: RPMI-8226, Leukemia; cited from earlier work.
In test [26] the test system is HOP-62. Also on record: method as in PMID 32745753. The settings on record: HOP-62, NSCL cancer; cited from earlier work.
The test system of test [27] is NCI-H522. Set-up: method as in PMID 32745753. The settings on record: NCI-H522, NSCL cancer; cited from earlier work.
Test [28] has as its system COLO 205. Set-up: method as in PMID 32745753. The note with it: COLO 205, Colon cancer; cited from earlier work.
For test [29], the system named is SNB-75. Set-up: method as in PMID 32745753. The note with it: SNB-75, CNS cancer; cited from earlier work.
The test system of test [30] is MALME-3M. Also on record: method as in PMID 32745753. The settings on record: Melanoma; cited from earlier work.
For test [31], the system named is MDA-MB-435. Also on record: method as in PMID 32745753. The note with it: MDA-MB-435, Melanoma; cited from earlier work.
Test [32] relates to SK-MEL-28. Also on record: method as in PMID 32745753. The note with it: SK-MEL-28, Melanoma; cited from earlier work.
Test [33] deals with A498. Set-up: method as in PMID 32745753. The settings on record: A498, Renal cancer; cited from earlier work.
For test [34], the system named is CAKI-1. Also on record: method as in PMID 32745753. The note with it: CAKI-1, Renal cancer; cited from earlier work.
Test [35] has as its system MCF7. Set-up: method as in PMID 32745753. The settings on record: MCF7, Breast cancer; cited from earlier work.
[36] abbreviates: 10 µM ATP, 10-dose singlicate IC50 mode.
Where [37] appears, read: MALME-3M, MDA-MB-435, SK-MEL-2, and UACC-62.
The mark [38] stands for this setting: melanoma LOX IMVI, SK-MEL-28, and SK-MEL-5.
[39] abbreviates: Homo sapiens, MOLT-4, all leukemia cell lines, except MOLT-4.
[40] abbreviates: Homo sapiens, colon cancer cell lines, range over lines.

Chain of C-RAF (P04049 whole entry): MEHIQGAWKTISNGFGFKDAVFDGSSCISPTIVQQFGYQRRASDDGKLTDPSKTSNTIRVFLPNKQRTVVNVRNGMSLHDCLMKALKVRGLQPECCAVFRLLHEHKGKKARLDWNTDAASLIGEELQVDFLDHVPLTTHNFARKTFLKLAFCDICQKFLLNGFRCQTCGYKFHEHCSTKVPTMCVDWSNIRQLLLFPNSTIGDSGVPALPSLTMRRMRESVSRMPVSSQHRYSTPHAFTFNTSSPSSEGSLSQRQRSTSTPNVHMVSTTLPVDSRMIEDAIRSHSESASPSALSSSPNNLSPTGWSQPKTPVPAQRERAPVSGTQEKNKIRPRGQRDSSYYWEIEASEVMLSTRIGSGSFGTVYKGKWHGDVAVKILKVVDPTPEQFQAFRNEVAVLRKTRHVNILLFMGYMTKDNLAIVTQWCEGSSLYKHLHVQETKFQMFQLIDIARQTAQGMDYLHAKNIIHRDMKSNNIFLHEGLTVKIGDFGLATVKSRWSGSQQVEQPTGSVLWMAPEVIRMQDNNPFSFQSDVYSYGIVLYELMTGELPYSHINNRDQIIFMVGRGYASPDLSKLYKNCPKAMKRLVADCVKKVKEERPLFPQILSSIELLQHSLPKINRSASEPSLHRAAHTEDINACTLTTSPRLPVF
T1 sequence (P15056 whole entry V600E): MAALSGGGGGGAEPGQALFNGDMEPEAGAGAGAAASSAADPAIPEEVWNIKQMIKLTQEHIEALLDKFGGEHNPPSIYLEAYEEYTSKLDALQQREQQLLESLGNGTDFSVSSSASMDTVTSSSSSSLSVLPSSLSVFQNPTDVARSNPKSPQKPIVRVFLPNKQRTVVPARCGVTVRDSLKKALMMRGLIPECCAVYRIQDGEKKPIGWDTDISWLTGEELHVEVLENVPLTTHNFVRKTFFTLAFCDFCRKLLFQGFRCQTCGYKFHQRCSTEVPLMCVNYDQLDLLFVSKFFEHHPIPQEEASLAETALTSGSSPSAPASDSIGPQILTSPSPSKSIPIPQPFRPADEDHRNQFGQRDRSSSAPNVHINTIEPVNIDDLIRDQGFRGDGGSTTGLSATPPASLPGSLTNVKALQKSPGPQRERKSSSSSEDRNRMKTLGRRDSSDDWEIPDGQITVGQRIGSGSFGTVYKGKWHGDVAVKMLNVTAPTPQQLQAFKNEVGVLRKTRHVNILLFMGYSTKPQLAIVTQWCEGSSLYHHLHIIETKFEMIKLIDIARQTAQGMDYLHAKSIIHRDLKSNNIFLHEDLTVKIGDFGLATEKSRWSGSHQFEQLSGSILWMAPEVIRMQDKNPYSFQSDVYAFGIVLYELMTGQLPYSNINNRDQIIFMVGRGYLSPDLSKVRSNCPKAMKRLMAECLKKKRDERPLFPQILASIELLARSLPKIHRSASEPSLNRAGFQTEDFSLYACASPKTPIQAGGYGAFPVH
T2 sequence (P15056 whole entry V600K): as the sequence (P15056 whole entry V600E) above, with E600K counted along it

In the case of `CN1CCN(Cc2ccc(C(=O)Nc3cccc(Nc4ccc5c(O)cccc5n4)c3)cc2C(F)(F)F)CC1` [Compound 17a, N-(3-((5-hydroxyquinolin-2-yl)amino)phenyl)-4-((4-methylpiperazin-1-yl)methyl)-3-(trifluoromethyl)benzamide], the IC50 – broadly, the concentration at which inhibition is half-maximal – in test [1] (setting [36]) turned out to be 0.137 ± 0.0132 µM; in [22] (setting [36]), 0.095 ± 0.0173 µM. The GI50 (as a rule, the concentration at which growth is held to half of that of the control) in test [2] stood at 2.11 µM; in test [3], 2.13 µM; in [4] it was 2.91 µM; in test [5] it was 2.47 µM; in test [6], 3 µM; in [7] it was 1.32 µM. Further, the GI50 in test [8] turned out to be 2.96 µM; in [9] it was 2.3 µM; in test [10], 2.21 µM; in [11], 1.86 µM; in [12] it was 19.2 µM; in [13], 3.45 µM. The GI50 worked out at 4.39 µM in test [14]; 2.24 µM in test [15]; 1.99 µM in test [16]; 1.62 µM in test [17]; 1.62 µM in [18]; 2.53 µM in [19]. Besides, the GI50 in test [21] (setting [39]) was greater than 2 µM. Moreover, the growth percent entry was “less than -90” in test [20] (setting [37]) and −100 in [20] (setting [38]).
On to `CN1CCCN(Cc2ccc(C(=O)Nc3cccc(Nc4ccc5c(O)cccc5n4)c3)cc2C(F)(F)F)CC1` [Compound 17b, N-(3-((5-hydroxyquinolin-2-yl)amino)phenyl)-4-((4-methyl-1,4-diazepan-1-yl)methyl)-3-(trifluoromethyl)benzamide], for which the results for the IC50 in [1] (setting [36]), in test [23] and in test [22] (setting [36]) were 0.128 ± 5e-05 µM, 0.0616 ± 0.001 µM and 0.0653 ± 0.0006 µM, respectively. Moreover, the GI50 in test [2] was 2.06 µM; in [3], 1.79 µM; in [4], 2.07 µM; in test [5], 2.35 µM; in test [6], 2.03 µM; in test [7] it was 1.64 µM. The GI50 is 1.93 µM in [8]; 1.98 µM in test [9]; 1.89 µM in test [10]; 2.11 µM in test [11]; 16.7 µM in test [12]; 6.43 µM in test [13]. Besides, the GI50 in test [15] is 1.95 µM; in [16] it was 2.04 µM; in test [17] it was 1.65 µM; in test [18], 1.66 µM; in [19], 1.87 µM; in test [21] (setting [39]), greater than 2 µM. Further, the GI50 is less than 2 µM in test [21] (setting [40]); 1.6 to 1.89 µM in test [21] (Homo sapiens, melanoma cell lines, range over lines); less than 2 µM in test [21] (melanoma cell lines, range over lines). Also, the growth percent result in test [20] (setting [37]) is reported as “less than -90”; in test [20] (setting [38]) it was −100; in test [20] (melanoma SK-MEL-29, SK-MEL-5, and UACC-62), “under −90%”.
With `CN1CCN(Cc2ccc(C(=O)Nc3cccc(Nc4ccc5cc(O)ccc5n4)c3)cc2C(F)(F)F)CC1` [Compound 18a, N-(3-((6-hydroxyquinolin-2-yl)amino)phenyl)-4-((4-methylpiperazin-1-yl)methyl)-3-(trifluoromethyl)benzamide], the IC50 in test [1] (1 µM ATP) was 0.0843 ± 0.009 µM; in [1] (setting [36]) it was 0.114 ± 0.00495 µM; in [23] it was less than 0.00508 µM; in test [22] (1 µM ATP), 0.0293 ± 0.009 µM; in [22] (setting [36]), 0.0676 ± 0.0051 µM. The GI50 in test [2] stood at 3.13 µM; in test [3], 11.9 µM; in test [4], 3.48 µM; in [5] it was 2.58 µM; in test [6], 12.1 µM; in test [7] it was 3.39 µM. The GI50 in test [8] was found to be 4.17 µM; in test [9], 3.16 µM; in [10] it was 9.06 µM; in test [11], 3.52 µM; in [12], 16 µM; in test [14], 2.68 µM. Further, the GI50 in test [15] was 2.3 µM; in test [16] it was 13.4 µM; in test [17], 2.54 µM; in test [18], 2.23 µM; in test [19] it was 4.68 µM; in test [21] (Homo sapiens, LOX IMVI, MALME-3M, and SK-MEL-28), 1.59 to 1.79 µM. Besides, the GI50 in test [21] (Homo sapiens, NSCL cell lines, range over lines) fell in the range of 3.39 to 17.8 µM; in test [21] (setting [40]), 2.09 to 18.5 µM. The growth percent result is “less than -90” in [20] (setting [37]) and −100 in test [20] (setting [38]). For the same molecule, in [21] (other melanoma cell lines), the “GI50 increase relative to 17a” value is given as 1.37–9.11 fold.
On to `CNC(=O)c1cc(Oc2ccc(NC(=O)Nc3ccc(Cl)c(C(F)(F)F)c3)cc2)ccn1` [Sorafenib], for which the GI50 is 1.6 µM in test [24]; 1.5 µM in test [25]; 1.9 µM in [26]; 2.1 µM in test [27]; 2.2 µM in test [28]; 3 µM in test [29]. Moreover, the GI50 in test [30] is 2.2 µM; in [31], 1.8 µM; in test [32] it was 2.6 µM; in test [33], 2.3 µM; in test [34] it was 2.9 µM; in [35] it was 2.8 µM.
